Data on 2 substances can be found in PMC12804144, “Lipopeptide ligands captured by MHC class I molecules undergo dynamic conformational changes that affect their antigenic strength” (The Journal of Biological Chemistry, 2025).

For assay [1], the system named is J.RT3/SN45 (SN45 TCR-reconstituted Jurkat T-cell line). The following applies: J.RT3/SN45 responder T cells; cited from earlier work. An excerpt:
J.RT3, a TCR-deficient Jurkat cell line, was transfected with SN45-derived TCRα and TCRβ complementary DNAs in a previous study. The SN45 TCR-reconstituted T-cell line (J.RT3/SN45) was used as responder T cells to compare antigenic activities among C14nef4-related analogs.

In assay [2] the test system is SN45 TCR. Kind of assay: Biolayer interferometry of SN45 TCR with lipopeptide-bound MHC class I complexes. The assay is classed as binding, rhesus monkey. The source says: Cell-based analyses may be influenced by undefined factors related to the use of live cells and serum components. Therefore, we first sought to validate the separation of the two groups at the molecular level. To this end, we investigated the kinetics of TCR–lipopeptide interactions in biolayer interferometry experiments. […] All refolded complexes were purified by size-exclusion and anion-exchange chromatography, and nearly identical elution profiles were obtained for each lipopeptide sample. […]
Figure 1 Biolayer interferometry analysis of interactions between the SN45 TCR and lipopeptide-bound Mamu-B∗05104 complexes. The molecular interaction kinetics of SN45 TCR and lipopeptide-bound Mamu-B∗05104 complexes were assessed using the Octet RED96 system, in which biotinylated SN45 TCR proteins were immobilized on streptavidin-coated sensors, and serially diluted Mamu-B∗05104 complexes were applied as analytes. […]
Biomolecular interaction analyses were performed using the Octet RED96 system equipped with a streptavidin-conjugated biosensor (Sartorius), according to the manufacturer’s instructions. […] A shift in the interference pattern was monitored in real time during this period. […]
On the technique in general: Biolayer interferometry detects binding as a change in optical thickness at a sensor tip.

As to C14-Gly1-Gly2-Ala3-Ile4 [C14nef4], in assay [1], the “antigenic activity group (highly / poorly antigenic)” value is on record as “highly antigenic”. In assay [2] (lipopeptide-bound Mamu-B∗05104 complex as analyte on immobilized SN45 TCR), the “antigenic group by biolayer interferometry (highly / poorly antigenic)” value is given as “highly antigenic”.

As for “C14-Gly1-Gly2-Ala3-Ile4-Ser5 [C14nef5, reference compound]”, the “binding to the SN45 TCR” value in assay [2] (C14nef5-bound Mamu-B∗098 complex as analyte, negative control) is “failed to bind”.
